Test results: patent US5679695A, “Aryl and heteroaryl compounds having anti-retrovirus activity” (The University of Connecticut, priority 1995, dated 1997)

How the values were obtained:
[1] = system: Rauscher Murine Leukemia Virus (MLV); assay: Rauscher MuLV UV-XC plaque assay; assay type: cell-based
Protocol: (§1) One such method is used to determine the effectiveness of representative compounds and compositions of the present invention in the Rauscher and LP-BMS Murine Leukemia Virus (MLV) In Vitro Assays.
(§2) SC-1 cells were grown as monolayers in 6-well tissue culture plates (Falcon). The a test compound was added to the cultures at the time of virus inoculation (approximately 24 hours after the cells were seeded) and was present for 3 days, at which time the cultures were irradiated with UV light. All compounds were solubilized in DMSO prior to dilution in grown medium. The highest concentration of DMSO present in the cultures was 0.05%. The test cultures (triplicate cultures per drug concentrate) each contained 2 ml of test compound diluted in growth medium (Eagle's minimum) essential medium (EMEM) supplemented with 5% heat-inactivated fetal bovine serum (FBS) and 0.5 ml of the virus suspension diluted to produce a countable number of plaques per well. The six virus control cultures contained 2 ml of medium and 0.5 ml of the virus suspension. NSC606170(ddC) was included as a positive control. drug. Drug cytotoxicity control cultures (containing test compound) but no virus and cell control culture (containing no test compound) or virus were included in the assay. On day 3 post-virus inoculation, the cultures were irradiated and XC cells were added. Three days after V-irradiation, the cultures were fixed with formalin and stained with 0.1% crystal violet. The plaques were counted with the aid of a dissection microscope.
(§3) Using the procedure, the following data is generated from representative compounds of the presnet invention.

LP-BM5 MuLV = LP-BM5 MuLV UV-XC plaque assay; assay type: cell-based, Murine Leukemia Virus; details: for inhibition at 100 µM / inhibition at 10 µM / inhibition at 1 µM / inhibition at 0.1 µM / inhibition at 0.01 µM: Murine leukemia virus, SC-1, read-out: % Plaque Reduction
Protocol: as §1, §2, §3

HIV-1 = assay: XTT assay of protection from HIV-1 cytopathic effect, infected, CEM-IW; assay type: cell-based, Human Immunodeficiency Virus; details: Human immunodeficiency virus 1, CEM-IW, summary table; read-out: CEM-IW EC50
Protocol: Another assay for testing the efficacy of the compounds is the procedure* used in the National Cancer Institute's test for agents active against Human Immunodeficiency Virus (HIV). It is designed to detect agents acting at any stage of the virus reproductive cycle. The assay basically involves the killing of T4 lymphocytes by HIV. Small amounts of HIV are added to cells, and a complete cycle of virus reproduction is necessary to obtain the required cell killing. Agents that interact with virions, cells, or virus gene-products to interfere with viral activities will protect cells from cytolysis. The system is automated in several features to accommodate large numbers of candidate agents and is generally designed to detect anti-HIV activity. However, compounds that degenerate, or are rapidly metabolized in the culture conditions may not show activity in this screen. All tests are compared with at least one positive (e.g., AZT-treated) control done at the same time under identical conditions.
* Weislow. O. W., Kiser, R., Fine, D., Bader, J., Shoemaker, R. H., Boyd, M. R.: New soluble-formazan assay for HIV-1 cytopathic effects: application to high-flux screening of synthetic and natural products for AIDS-antiviral activity. J. Natl. Cancer Inst. 81:577-586, 1989.
1. The Candidate agent is dissolved in dimethyl sulfoxide (unless otherwise instructed) then diluted 1:100 in cell culture medium before preparing serial half-log10 dilutions. T4 lymphocytes (CEM cell line) are added and after a brief interval HIV-1 added, resulting in a 1:200 final dilution of the compound. Uninfected cells with the compound serve as a toxicity control, and infected and uninfected cells without compound serve as basic controls.
2. Cultures are incubated at 37° in a 5% carbon dioxide atmosphere for 6 days.
3. The tetrazolium salt, XTT, is added to all wells, and cultures are incubated to allow formazan color development by viable cells.
4. Individual wells are analyzed spectrophotometrically to quantitate formazan production, and in addition are viewed microscopically for detection of viable cells and confirmation of protective activity.
5. Drug-treated virus-infected cells are compared with drug-treated noninfected cells and with other appropriate controls (untreated infected and untreated noninfected: cells, drug-containing wells without cells, etc.) on the same plate.
6. Data are reviewed in comparison with other tests done at the same time and a determination about activity is made.

[2] = Murine leukemia virus, SC-1, 1 × 10^-4 M, read-out: % Plaque Reduction
[3] = Murine leukemia virus, SC-1, 1 × 10^-5 M, read-out: % Plaque Reduction
[4] = Murine leukemia virus, SC-1, 1 × 10^-6 M, read-out: % Plaque Reduction
[5] = Murine leukemia virus, SC-1, 1 × 10^-7 M, read-out: % Plaque Reduction
[6] = Murine leukemia virus, SC-1, 1 × 10^-8 M, read-out: % Plaque Reduction

O=[N+]([O-])c1ccccc1S(=O)(=O)c1ccccc1 [Compound 1, 1-Nitro-2-(phenylsulfonyl)benzene]
Mean plaque count ([1]; 1 × 10^-4 M): 46 | Plaque count, replicate #1 ([1]; 1 × 10^-4 M): 43 | Plaque count, replicate #2 ([1]; 1 × 10^-4 M): 48 | Plaque count, replicate #3 ([1]; 1 × 10^-4 M): 46 | Mean plaque count ([1]; 1 × 10^-5 M): 53 | Plaque count, replicate #1 ([1]; 1 × 10^-5 M): 58 | Plaque count, replicate #2 ([1]; 1 × 10^-5 M): 42 | Plaque count, replicate #3 ([1]; 1 × 10^-5 M): 60 | Mean plaque count ([1]; 1 × 10^-6 M): 56 | Plaque count, replicate #1 ([1]; 1 × 10^-6 M): 71 | Plaque count, replicate #2 ([1]; 1 × 10^-6 M): 43 | Plaque count, replicate #3 ([1]; 1 × 10^-6 M): 53 | Mean plaque count ([1]; 1 × 10^-7 M): 64 | Plaque count, replicate #1 ([1]; 1 × 10^-7 M): 53 | Plaque count, replicate #2 ([1]; 1 × 10^-7 M): 69 | Plaque count, replicate #3 ([1]; 1 × 10^-7 M): 71 | Mean plaque count ([1]; 1 × 10^-8 M): 65 | Plaque count, replicate #1 ([1]; 1 × 10^-8 M): 64 | Plaque count, replicate #2 ([1]; 1 × 10^-8 M): 55 | Plaque count, replicate #3 ([1]; 1 × 10^-8 M): 76 | inhibition at 100 µM [1, 2]: 26% | inhibition at 10 µM [1, 3]: 14% | inhibition at 1 µM [1, 4]: 10% | inhibition at 0.1 µM [1, 5]: 0% | inhibition at 0.01 µM [1, 6]: 0% | Mean plaque count (LP-BM5 MuLV; 1 × 10^-4 M): 254 | Plaque count, replicate #1 (LP-BM5 MuLV; 1 × 10^-4 M): 219 | Plaque count, replicate #2 (LP-BM5 MuLV; 1 × 10^-4 M): 216 | Plaque count, replicate #3 (LP-BM5 MuLV; 1 × 10^-4 M): 328 | Mean plaque count (LP-BM5 MuLV; 1 × 10^-5 M): 261 | Plaque count, replicate #1 (LP-BM5 MuLV; 1 × 10^-5 M): 335 | Plaque count, replicate #2 (LP-BM5 MuLV; 1 × 10^-5 M): 216 | Plaque count, replicate #3 (LP-BM5 MuLV; 1 × 10^-5 M): 232 | Mean plaque count (LP-BM5 MuLV; 1 × 10^-6 M): 255 | Plaque count, replicate #1 (LP-BM5 MuLV; 1 × 10^-6 M): 337 | Plaque count, replicate #2 (LP-BM5 MuLV; 1 × 10^-6 M): 218 | Plaque count, replicate #3 (LP-BM5 MuLV; 1 × 10^-6 M): 210 | Mean plaque count (LP-BM5 MuLV; 1 × 10^-7 M): 207 | Plaque count, replicate #1 (LP-BM5 MuLV; 1 × 10^-7 M): 201 | Plaque count, replicate #2 (LP-BM5 MuLV; 1 × 10^-7 M): 192 | Plaque count, replicate #3 (LP-BM5 MuLV; 1 × 10^-7 M): 228 | Mean plaque count (LP-BM5 MuLV; 1 × 10^-8 M): 246 | Plaque count, replicate #1 (LP-BM5 MuLV; 1 × 10^-8 M): 222 | Plaque count, replicate #2 (LP-BM5 MuLV; 1 × 10^-8 M): 204 | Plaque count, replicate #3 (LP-BM5 MuLV; 1 × 10^-8 M): 311 | inhibition at 100 µM (LP-BM5 MuLV; 1 × 10^-4 M): 11% | inhibition at 10 µM (LP-BM5 MuLV; 1 × 10^-5 M): 9% | inhibition at 1 µM (LP-BM5 MuLV; 1 × 10^-6 M): 11% | inhibition at 0.1 µM (LP-BM5 MuLV; 1 × 10^-7 M): 27% | inhibition at 0.01 µM (LP-BM5 MuLV; 1 × 10^-8 M): 14% | EC50 (HIV-1): 4.41 µM

Cc1ccc(S(=O)(=O)c2ccccc2[N+](=O)[O-])cc1 [Compound 2, 1-(4-Methylphenylsulfonyl)-2-nitrobenzene]
Mean plaque count ([1]; 1 × 10^-3 M): 19 | Plaque count, replicate #1 ([1]; 1 × 10^-3 M): 20 | Plaque count, replicate #2 ([1]; 1 × 10^-3 M): 20 | Plaque count, replicate #3 ([1]; 1 × 10^-3 M): 17 | Mean plaque count ([1]; 1 × 10^-4 M): 8 | Plaque count, replicate #1 ([1]; 1 × 10^-4 M): 9 | Plaque count, replicate #2 ([1]; 1 × 10^-4 M): 8 | Plaque count, replicate #3 ([1]; 1 × 10^-4 M): 8 | Mean plaque count ([1]; 1 × 10^-5 M): 64 | Plaque count, replicate #1 ([1]; 1 × 10^-5 M): 60 | Plaque count, replicate #2 ([1]; 1 × 10^-5 M): 69 | Plaque count, replicate #3 ([1]; 1 × 10^-5 M): 64 | Mean plaque count ([1]; 1 × 10^-6 M): 61 | Plaque count, replicate #1 ([1]; 1 × 10^-6 M): 72 | Plaque count, replicate #2 ([1]; 1 × 10^-6 M): 53 | Plaque count, replicate #3 ([1]; 1 × 10^-6 M): 5 | Mean plaque count ([1]; 1 × 10^-7 M): 56 | Plaque count, replicate #1 ([1]; 1 × 10^-7 M): 52 | Plaque count, replicate #2 ([1]; 1 × 10^-7 M): 57 | Plaque count, replicate #3 ([1]; 1 × 10^-7 M): 60 | Mean plaque count ([1]; 1 × 10^-8 M): 60 | Plaque count, replicate #1 ([1]; 1 × 10^-8 M): 62 | Plaque count, replicate #2 ([1]; 1 × 10^-8 M): 56 | Plaque count, replicate #3 ([1]; 1 × 10^-8 M): 63 | inhibition at 1000 µM ([1]; Murine leukemia virus, SC-1, 1 × 10^-3 M, read-out: % Plaque Reduction): 69% | inhibition at 100 µM [1, 2]: 87% | inhibition at 10 µM [1, 3]: 0% | inhibition at 1 µM [1, 4]: 2% | inhibition at 0.1 µM [1, 5]: 9% | inhibition at 0.01 µM [1, 6]: 3% | Mean plaque count (LP-BM5 MuLV; 1 × 10^-3 M): 130 | Plaque count, replicate #1 (LP-BM5 MuLV; 1 × 10^-3 M): 162 | Plaque count, replicate #2 (LP-BM5 MuLV; 1 × 10^-3 M): 123 | Plaque count, replicate #3 (LP-BM5 MuLV; 1 × 10^-3 M): 104 | Mean plaque count (LP-BM5 MuLV; 1 × 10^-4 M): 50 | Plaque count, replicate #1 (LP-BM5 MuLV; 1 × 10^-4 M): 43 | Plaque count, replicate #2 (LP-BM5 MuLV; 1 × 10^-4 M): 37 | Plaque count, replicate #3 (LP-BM5 MuLV; 1 × 10^-4 M): 70 | Mean plaque count (LP-BM5 MuLV; 1 × 10^-5 M): 245 | Plaque count, replicate #1 (LP-BM5 MuLV; 1 × 10^-5 M): 265 | Plaque count, replicate #2 (LP-BM5 MuLV; 1 × 10^-5 M): 204 | Plaque count, replicate #3 (LP-BM5 MuLV; 1 × 10^-5 M): 267 | Mean plaque count (LP-BM5 MuLV; 1 × 10^-6 M): 264 | Plaque count, replicate #1 (LP-BM5 MuLV; 1 × 10^-6 M): 270 | Plaque count, replicate #2 (LP-BM5 MuLV; 1 × 10^-6 M): 217 | Plaque count, replicate #3 (LP-BM5 MuLV; 1 × 10^-6 M): 304 | Mean plaque count (LP-BM5 MuLV; 1 × 10^-7 M): 299 | Plaque count, replicate #1 (LP-BM5 MuLV; 1 × 10^-7 M): 327 | Plaque count, replicate #2 (LP-BM5 MuLV; 1 × 10^-7 M): 269 | Plaque count, replicate #3 (LP-BM5 MuLV; 1 × 10^-7 M): 301 | Mean plaque count (LP-BM5 MuLV; 1 × 10^-8 M): 318 | Plaque count, replicate #1 (LP-BM5 MuLV; 1 × 10^-8 M): 299 | Plaque count, replicate #2 (LP-BM5 MuLV; 1 × 10^-8 M): 340 | Plaque count, replicate #3 (LP-BM5 MuLV; 1 × 10^-8 M): 314 | inhibition at 100 µM (LP-BM5 MuLV; 1 × 10^-4 M): 82% | inhibition at 10 µM (LP-BM5 MuLV; 1 × 10^-5 M): 14% | inhibition at 1 µM (LP-BM5 MuLV; 1 × 10^-6 M): 8% | inhibition at 0.1 µM (LP-BM5 MuLV; 1 × 10^-7 M): 0% | inhibition at 0.01 µM (LP-BM5 MuLV; 1 × 10^-8 M): 0% | EC50 (HIV-1): 14.5 µM
